In the test the test system is T-type calcium channels in the thalamocortical circuit. Nature of the test: Phase 1 sleep EEG in healthy volunteers (NREM sigma). In kind it is in vivo, human. The note with it: FIG. 12. As for the experimental part:
This was a 2-part, Phase 1 double blind, placebo controlled trial to assess the safety, tolerability, PK, and PD (including the KSS, the KDT, the SQSQ and 24-hour EEG recordings), of single, ascending (Part A: 20, 40, and 60 mg)) and multiple, ascending (Part B: 20 and 40 mg for 8 days) doses of the 20 mg tablet (formulation 3) in healthy participants. […] Variability in Cmax and AUC increased with increasing dose following a single oral dose of the 20 mg tablet formulation (formulation 3).
The T-type calcium channels expressed in the thalamus are critically involved in the generation and modulation of sleep spindles which are prominent thalamocortical oscillations during NREM sleep. Sleep spindles are detected in the EEG as the sigma frequency band (11-15 Hz) (FIG. 12).

In the case of `CC(C)(C)NC(=O)CN1CCC(CNC(=O)c2cc(F)cc(Cl)c2)CC1` [the compound of formula (I)], the “power in the sigma frequency band (11-15 Hz), NREM sleep EEG” value was “decrease of power in the sigma frequency band”.

The values above are taken from US12528772B2, “Formulations of T-type calcium channel modulators and methods of use thereof” (Praxis Precision Medicines, Inc., priority 2019, dated 2026).
